Results from patent US9540391B2, “Isomannide derivatives as inhibitors of soluble epoxide hydrolase” (SANOFI, priority 2013, dated 2017).
Counter-ions that a name gives are not always drawn.

What follows are molecules tested against T1, recombinant sEH (Homo sapiens, UniProt P34913) (assay: biochemical screening assay for inhibition of soluble epoxide hydrolase (fluorometric, Phome substrate)).
T1 construct: made in house; host or cells: Sf9 insect cells
T1 sequence (P34913 1-555): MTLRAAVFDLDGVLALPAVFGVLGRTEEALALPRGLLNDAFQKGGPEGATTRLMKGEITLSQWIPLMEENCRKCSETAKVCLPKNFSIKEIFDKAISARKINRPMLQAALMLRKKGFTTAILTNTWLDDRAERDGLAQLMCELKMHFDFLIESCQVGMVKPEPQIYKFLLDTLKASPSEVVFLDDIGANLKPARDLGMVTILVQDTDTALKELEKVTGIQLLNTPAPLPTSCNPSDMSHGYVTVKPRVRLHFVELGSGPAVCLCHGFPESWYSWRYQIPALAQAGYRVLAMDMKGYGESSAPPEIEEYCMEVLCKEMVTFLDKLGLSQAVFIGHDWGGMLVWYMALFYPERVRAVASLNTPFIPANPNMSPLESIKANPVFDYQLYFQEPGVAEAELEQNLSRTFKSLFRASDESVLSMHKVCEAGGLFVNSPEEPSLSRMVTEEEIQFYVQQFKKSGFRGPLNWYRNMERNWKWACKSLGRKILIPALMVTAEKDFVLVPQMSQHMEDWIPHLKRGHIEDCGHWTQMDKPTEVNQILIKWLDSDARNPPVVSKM
Description: The ability of the compounds of the formula I to inhibit soluble epoxide hydrolase can be determined as follows:
Compounds were tested in a biochemical screening assay using recombinant sEH purified from Sf9 insect cells and an artificial substrate, (3-phenyl-oxiranyl)-acetic acid cyano-(6-methoxy-naphtalen-2-yl)-methyl ester, Phome. The biochemical assay was performed in analogy to a fluorometric method described in the literature (P. D. Jones et al., Anal. Biochem. 2005, 343, 66-75). The assay principle bases on the sEH-catalyzed hydrolysis of an artificial α-cyano-ester substrate. 0-deacetylation liberates a cyanohydrin intermediate that rapidly decomposes to the highly fluorescent 6-methoxy-2-naphtaldehyde. To discriminate sample autofluorescence, the assay was carried out as a kinetic measurement with two time points. The first measurement is performed immediately before addition of the substrate and the second measurement is done after completion of the assay. The assay format is either in 96- or in 384-well format. Details of the assay using a 96-well plate format are described below. 40 μL recombinant sEH enzyme and 5 μL test compound are pre-incubated for 15 minutes at 30° C. Following pre-incubation, the reaction is started by addition of 5 μL Phome. The assay mixture containing 2 nM final sEH concentration, test compound ranging in a concentration from 0.0001-10 μM and 5 μM Phome is incubated for 60 minutes at 30° C.
Fluorescence can be measured with any suitable detector for instance a TECAN Safire or Tecan Ultra at […]. % inhibition of recombinant sEH activity is used for calculation of corresponding IC50 values as illustrated and described in the examples.
The NCBI gene bank reference sequence with the accession number NM_001979 for EPHX2/sEH was applied for recombinant protein production:
The following commercially available materials have been used: • Incubation reagent: 25 mM Hepes (Sigma-Aldrich, Cat. No H-3375), 0.01% bovine albumin (Sigma-Aldrich Cat. No PA9205) • Substrate: 3-Phenyl-oxiranyl)-acetic acid cyano-(6-methoxy-naphtalen-2-yl)-methyl ester, Phome (Biozol Cat. No 10003134) • Microtiter plates: 96-well plates (Greiner Cat. No 655180; Costar Cat. No 3915)

| IC50 | SMILES |
| --- | --- |
| 96 nM | Cc1ncccc1O[C@H]1CO[C@H]2[C@@H]1OC[C@@H]2NC(=O)NC1CCCOC1 (stereo partly drawn) [Example 221, 1-[(3S,3aR,6S,6aS)-6-(2-Methyl-pyridin-3-yloxy)-hexahydro-furo[3,2-b]furan-3-yl]-3-(tetrahydro-pyran-3-yl)-urea] |
| 25 nM | O=C(Nc1ccc(OC(F)(F)F)cc1)N[C@H]1CO[C@H]2[C@@H]1OC[C@@H]2C#Cc1ccccc1 [Example 298, 1-((3S,3aR,6S,6aR)-6-Phenylethynyl-hexahydro-furo[3,2-b]furan-3-yl)-3-(4-trifluoromethoxy-phenyl)-urea] |
| 89 nM | O=C(Nc1ccc(F)cc1)N[C@H]1CO[C@H]2[C@@H]1OC[C@@H]2/C=C\c1ccsc1 [Example 340, 1-(4-Fluoro-phenyl)-3-[(3S,3aR,6S,6aR)-6-((Z)-2-thiophen-3-yl-vinyl)-hexahydro-furo[3,2-b]furan-3-yl]-urea] |
| 16 nM | COC(=O)c1cccc(NC(=O)NC2COC3C(C#Cc4ccsc4)COC23)c1 [Example 309, 3-[3-((3S,3aR,6S,6aR)-6-Thio-phen-3-ylethynyl-hexahydro-furo[3,2-b]furan-3-yl)-ureido]-benzoic acid methyl ester] |
| 3560 nM | Cc1ncccc1O[C@H]1CO[C@H]2[C@@H]1OC[C@@H]2NC(=O)NC(C)(C)c1cccnc1 [Example 233, 1-(1-Methyl-1-pyridin-3-yl-ethyl)-3-[(3S,3aR,6S,6aS)-6-(2-methyl-pyridin-3-yloxy)-hexahydro-furo[3,2-b]furan-3-yl]-urea] |
| 2 nM | Cc1ncccc1O[C@H]1CO[C@H]2[C@@H]1OC[C@@H]2NC(=O)NC1CCCCC1(F)F (stereo partly drawn) [Example 277, 1-(2,2-Difluoro-cyclohexyl)-3-[(3S,3aR,6S,6aS)-6-(2-methyl-pyridin-3-yloxy)-hexahydro-furo[3,2-b]furan-3-yl]-urea] |
| 345 nM | COc1cccc(CNC(=O)N[C@H]2CO[C@H]3[C@@H]2OC[C@@H]3Oc2cccnc2C)n1 [Example 202, 1-(6-Methoxy-pyridin-2-ylmethyl)-3-[(3S,3aR,6S,6aS)-6-(2-methyl-pyridin-3-yloxy)-hexahydro-furo[3,2-b]furan-3-yl]-urea] |
| 2 nM | Cc1ncccc1O[C@H]1CO[C@H]2[C@@H]1OC[C@@H]2NC(=O)NC1CC2CC1C1CCCC21 (stereo partly drawn) [Example 262, 1-[(3S,3aR,6S,6aS)-6-(2-Methyl-pyridin-3-yloxy)-hexahydro-furo[3,2-b]furan-3-yl]-3-(octahydro-4,7-methano-inden-5-yl)-urea] |
| 147 nM | O=C(NCc1ccc(F)cc1)N[C@H]1CO[C@@H]2[C@@H]1OC[C@H]2C#Cc1ccccc1 [Example 288, 1-(4-Fluoro-benzyl)-3-[(3S,3aR,6R)-6-((S)-phenylethynyl)-hexahydro-furo[3,2-b]furan-3-yl]-urea] |
| 5790 nM | Cc1ncccc1O[C@H]1CO[C@H]2[C@@H]1OC[C@@H]2NC(=O)NCC1CCC(=O)N1 (stereo partly drawn) [Example 201, 1-[(3S,3aR,6S,6aS)-6-(2-Methyl-pyridin-3-yloxy)-hexahydro-furo[3,2-b]furan-3-yl]-3-(5-oxo-pyrrolidin-2-ylmethyl)-urea] |
| 39 nM | COc1cc(NC(=O)NC2COC3C(CCc4ccsc4)COC23)cc(OC)c1 [Example 361, 1-(3,5-Dimethoxy-phenyl)-3-[(3S,3aR,-6R)-6-((S)-2-thiophen-3-yl-ethyl)-hexahydro-furo[3,2-b]furan-3-yl]-urea] |
| 41 nM | Cc1ncccc1O[C@H]1CO[C@H]2[C@@H]1OC[C@@H]2NC(=O)NCCCn1nc(C(F)(F)F)cc1C [Example 243, 1-[(3S,3aR,6S,6aS)-6-(2-Methyl-pyridin-3-yloxy)-hexahydro-furo[3,2-b]furan-3-yl]-3-[3-(5-methyl-3-tri-fluoromethyl-pyrazol-1-yl)-propyl]-urea] |

More lines, now with the values behind:

| SMILES | IC50 |
| --- | --- |
| O=C(NC1CCCCC1)N[C@H]1CO[C@H]2[C@@H]1OC[C@@H]2Oc1cncc(F)c1 [Example 35, 1-Cyclohexyl-3-[(3S,3aR,6S,6aS)-6-(5-fluoro-pyridin-3-yloxy)-hexahydro-furo[3,2-b]furan-3-yl]-urea] | 12 nM |
| O=C(NC1CCCCC1)N[C@H]1CO[C@H]2[C@@H]1OC[C@@H]2Sc1ccc(Cl)cn1 [Example 63, 1-[(3S,3aR,6S,6aS)-6-(5-Chloro-pyridin-2-ylsulfanyl)-hexahydro-furo[3,2-b]furan-3-yl]-3-cyclohexyl-urea] | 1 nM |
| O=C(NC1CCCCC1)N[C@H]1CO[C@H]2[C@@H]1OC[C@@H]2Oc1cccc(Br)c1 [Example 139, 1-[(3S,3aR,6S,6aS)-6-(3-Bromo-phenoxy)-hexahydro-furo[3,2-b]furan-3-yl]-3-cyclohexyl-urea] | 2 nM |
| Cc1nc(-c2ccc(O[C@H]3CO[C@H]4[C@@H]3OC[C@@H]4NC(=O)NC3CCCCC3)cc2)no1 [Example 121, 1-Cyclohexyl-3-{(3S,3aR,6S,6aS)-6-[4-(5-methyl-[1,2,4]oxadiazol-3-yl)-phenoxy]-hexahydro-furo[3,2-b]furan-3-yl}-urea] | 1 nM |
| Cc1cc(C)c(O[C@H]2CO[C@H]3[C@@H]2OC[C@@H]3NC(=O)NC2CCCCC2)cn1 [Example 39, 1-Cyclohexyl-3-[(3S,3aR,6S,6aS)-6-(4,6-dimethyl-pyridin-3-yloxy)-hexa-hydro-furo[3,2-b]furan-3-yl]-urea] | 2 nM |
| Cc1ncccc1OC1COC2C(NC(=O)NC3CC4CCC3(C)C4(C)C)COC12 [Example 173, 1-[(2R,3aS,5S,6S)-6-(2-Methyl-pyridin-3-yloxy)-hexahydro-furo[3,2-b]furan-3-yl]-3-((1R,2S,4R)-1,7,7-trimethyl-bicyclo[2.2.1]hept-2-yl)-urea] | 5 nM |
| O=C(NC1CCCCC1)N[C@H]1CO[C@H]2[C@@H]1OC[C@@H]2Sc1nccs1 [Example 56, 1-Cyclohexyl-3-[(3S,3aR,6S,6aS)-6-(thiazol-2-ylsulfanyl)-hexahydro-furo[3,2-b]furan-3-yl]-urea] | 2 nM |
| O=C(NC1CCCCC1)N[C@H]1CO[C@H]2[C@@H]1OC[C@@H]2Oc1ccc(N2CCC(F)(F)CC2)nc1 [Example 71, 1-Cyclohexyl-3-[(3S,3aR,6S,6aS)-6-(4,4-difluoro-3,4,5,6-tetrahydro-2H-[1,2′]bipyridinyl-5′-yloxy)-hexahydro-furo[3,2-b]furan-3-yl]-urea] | 7 nM |
| O=C(NC1CCCCC1)N[C@H]1CO[C@H]2[C@@H]1OC[C@@H]2Oc1cccc2ccc(N3CCCC3)nc12 [Example 137, 1-Cyclohexyl-3-[(3S,3aR,6S,6aS)-6-(2-pyrrolidin-1-yl-quinolin-8-yloxy)-hexahydro-furo[3,2-b]furan-3-yl]-urea; trifluoroacetate] | 4 nM |
| Cc1cc(CNC(=O)N[C@H]2CO[C@H]3[C@@H]2OC[C@@H]3Oc2cccnc2C)on1 [Example 171, 1-(3-Methyl-isoxazol-5-ylmethyl)-3-[(3S,3aR,6S,6aS)-6-(2-methyl-pyridin-3-yloxy)-hexahydro-furo[3,2-b]furan-3-yl]-urea] | 2350 nM |
| Cc1ncccc1O[C@H]1CO[C@H]2[C@@H]1OC[C@@H]2NC(=O)NCC1COC(C)(C)O1 (stereo partly drawn) [Example 191, 1-(2,2-Dimethyl-[1,3]dioxolan-4-ylmethyl)-3-[(3S,3aR,6S,6aS)-6-(2-methyl-pyridin-3-yloxy)-hexahydro-furo[3,2-b]furan-3-yl]-urea] | 489 nM |
| CCC(O)(CC)c1cncc(O[C@H]2CO[C@H]3[C@@H]2OC[C@@H]3NC(=O)NC2CCCCC2)c1 [Example 69, 1-cyclohexyl-3-{(3S,3aR,6S,6aS)-6-[5-(1-ethyl-1-hydroxy-propyl)-pyridin-3-yloxy]-hexahydro-furo[3,2-b]furan-3-yl}-urea] | 2 nM |
| Cc1nc(-c2cccc(O[C@H]3CO[C@H]4[C@@H]3OC[C@@H]4NC(=O)NC3CCCCC3)c2)no1 [Example 129, 1-Cyclohexyl-3-{(3S,3aR,6S,6aS)-6-[3-(5-methyl-[1,2,4]oxadiazol-3-yl)-phenoxy]-hexahydro-furo[3,2-b]furan-3-yl}-urea] | 2 nM |
